Measurements from patent publication US7420068B2, “Crystalline composition containing escitalopram” (H. Lundbeck A/S, priority 2004, dated 2008).
Counter-ions that a name gives are not always drawn.

Legend:
Assay type in all cases: physicochemical
[1] = Flow properties of prior-art crystalline products (background statement); conditions: product of the known preparation process
[2] = Particle size of prior-art crystalline products (background statement); conditions: product of the known preparation process
[3] = Particle size distribution by laser diffraction (Sympatec Helos, 1 bar dispersive pressure)
Text: As used herein, “particle size distribution” means the cumulative volume size distribution of equivalent spherical diameters as determined by laser diffraction at 1 bar dispersive pressure in a Sympatec Helos equipment. “Median particle size” “MPS” and X50 refer, correspondingly, each to the median or 50% quantile of said particle size distribution. “X10” and “X95” refer, correspondingly, to the 10% respectively the 95% quantile. “X10/X50” and “X50/X95” refer to the ratio between X10 and X50 respectively X50 and X95.

Row | Compound | flow properties [1] | particle size [2] | X50 (median particle size) ([3]; S-diol batches, production scale recrystallisation from ethanol) [µm] | X10/X50 ([3]; S-diol batches, ratio of 10% quantile to median) | X50/X95 ([3]; S-diol batches, ratio of median to 95% quantile) | Particle size at quantile 10% ([3]; Sympatec Helos, quantile 10%) [μm] | Particle size at quantile 50% ([3]; Sympatec Helos, quantile 50%) [μm] | Particle size at quantile 90% ([3]; Sympatec Helos, quantile 90%) [μm]
1 | CN(C)CCC[C@@]1(c2ccc(F)cc2)OCc2cc(C#N)ccc21.O=C(O)C(=O)O [escitalopram oxalate, (S)-1-[3-(dimethylamino)propyl]-1-(4-fluorophenyl)-1,3-dihydro-5-isobenzofurancarbonitrile oxalate] | similarly poor | 2-20 μm |  |  |  |  |  | 
2 | CN(C)CCC[C@@]1(c2ccc(F)cc2)OCc2cc(C#N)ccc21 [Example 1, escitalopram oxalate] |  |  | 171 | 0.13 | 0.44 | 13 | 163 | 455
3 | CN(C)CCCC1(c2ccc(F)cc2)OCc2cc(C#N)ccc21 (stereo not shown) [citalopram hydrobromide] | very poor | 2-20 μm |  |  |  |  |  | 
